Experimental data: patent US9611252B2 (LifeSci Pharmaceuticals, Inc., priority 2013, dated 2017)

Columns and labels:
human Plasma Kallikrein = human Plasma Kallikrein (Homo sapiens (Human), UniProt P03952); experiment: In vitro enzyme inhibition of human plasma kallikrein (PFR-AMC cleavage); type: biochemical; settings: human plasma kallikrein, Pro-Phe-Arg-AMC substrate, 37° C.; read-out: hPK IC50
In short: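 Compound pre-incubated with human plasma kallikrein 5 min at 37° C in 50 mM Tris-HCl pH 7.5, 150 mM NaCl, 0.01% Triton X-100. Reaction started with PFR-AMC, cleavage read kinetically at 37° C every 43 s for 1 h.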

kallikrein = kallikrein (Homo sapiens (Human), UniProt P03952); experiment: In vitro cellular assay (contact assay): kallikrein activity in ellagic acid-activated human plasma, substrate Z-FR-2-AMC; type: biochemical; settings: human plasma activated with ellagic acid, Z-FR-2-AMC substrate, 37° C.; read-out: Contact Assay EC50
Chain of kallikrein (P03952 20-638): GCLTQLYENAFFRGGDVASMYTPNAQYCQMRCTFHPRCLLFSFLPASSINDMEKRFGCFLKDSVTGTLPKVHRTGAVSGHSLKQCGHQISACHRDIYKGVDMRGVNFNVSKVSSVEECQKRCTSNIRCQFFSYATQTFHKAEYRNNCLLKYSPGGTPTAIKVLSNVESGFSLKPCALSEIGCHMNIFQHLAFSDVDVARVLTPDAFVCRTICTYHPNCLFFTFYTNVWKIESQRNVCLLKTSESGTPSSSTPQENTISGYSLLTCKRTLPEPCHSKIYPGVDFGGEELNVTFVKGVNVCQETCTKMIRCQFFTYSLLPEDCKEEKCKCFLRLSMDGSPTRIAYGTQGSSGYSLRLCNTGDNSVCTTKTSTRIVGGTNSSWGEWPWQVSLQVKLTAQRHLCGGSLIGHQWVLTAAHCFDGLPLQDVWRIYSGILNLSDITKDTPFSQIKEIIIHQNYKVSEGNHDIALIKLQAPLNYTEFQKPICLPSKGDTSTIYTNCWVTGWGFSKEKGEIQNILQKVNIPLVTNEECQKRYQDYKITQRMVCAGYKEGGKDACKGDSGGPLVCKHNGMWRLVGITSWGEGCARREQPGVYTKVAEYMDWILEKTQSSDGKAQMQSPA
Procedure: The ability of the compounds disclosed herein to inhibit cellular kallikrein activity was quantified and the respective EC50 value was determined.
All dilutions were prepared in an assay buffer comprising 50 mM Tris-HCl pH 7.2, 150 mM NaCl, and 0.01% Triton X-100.
The ten solutions of the test compounds, prepared by serial dilution, were further diluted 50-fold in the assay buffer.
Human plasma is thawed on ice and centrifuged for 15 min at 4° C. to remove platelets. A 1 mM stock solution of ellagic acid is diluted to 8 μM and mixed with human plasma, after removing platelets, at a ratio of 1:0.8.
A 22.5 μL volume of the final mixture of human plasma and ellagic acid was added to a 96-well microwell plate and the plate was incubated for 15 min at 37° C.
The CINH inhibitor at various concentrations, prepared by serial dilutions as described above, were added to the inhibitor control wells. […] Each CINH concentration is tested in duplicates.
The test compounds at various concentrations, also prepared by serial dilutions as described above, are added to the test wells. […] Each test compound concentration was tested in duplicates.
In addition to the inhibitor control and test wells, the 96 well assay plate includes positive control wells which contained the mixture of human plasma and ellagic acid without C1NH inhibitor or test compounds, and background wells which contained neither the mixture of human plasma and ellagic acid nor the test compounds. The total volume of liquid in positive control and background wells was brought up to 35 μL, using the assay buffer.
The assay plate containing C1NH inhibitors and test compounds mixed with human plasma and ellagic acid and appropriate controls was incubated at 37° C. for 5 min. […] The reagents were mixed well by shaking the plate gently for 30 sec.
The enzyme reaction was quantified by immediate kinetic reading of the assay plate using excitation/emission wavelengths of 330 nm/440 nm respectively. Fluorescence intensity was recorded for 60 min, using a time interval of 43 sec.
The inhibition activity of the test compounds were evaluated using the IC50 values, calculated according to the dose-response curve of the test compounds, fitted using the “log(inhibitor)-response (variable slope)” equation in GraphPadPrism software (GraphPad Software, Inc.).
The percentage inhibition was calculated using the following equation:
[formula] where, Mean(BG) is the average value of the fluorescence intensity of the background wells and Mean(PC) is the average value of the fluorescence intensity of the positive control wells.
Table 4 provides the EC50 values of various compounds disclosed herein.

Chain of human Plasma Kallikrein (P03952 20-638): as above

## Cc1cnc2c(C(N)=O)cc(Cc3cc(C(=O)NCc4ccc5[nH]cc(Cl)c5c4F)ccn3)cc2c1 [Example 81, 6-((4-(((3-chloro-4-fluoro-1H-indol-5-yl)methyl)carbamoyl)pyridin-2-yl)methyl)-3-methylquinoline-8-carboxamide]
Human Plasma Kallikrein
  IC50: < 100 nM
kallikrein
  EC50: 100 to 1000 nM

## Cc1cnc2c(C(N)=O)cc(Cc3cc(C(=O)NCc4n[nH]c5ccc(Cl)cc45)ccn3)cc2c1 [Example 82, 6-((4-(((5-chloro-1H-indazol-3-yl)methyl)carbamoyl)pyridin-2-yl)methyl)-3-methylquinoline-8-carboxamide]
Human Plasma Kallikrein
  IC50: < 100 nM
kallikrein
  EC50: 100 to 1000 nM

## Cc1cnc2c(C(N)=O)cc(Cc3cc(C(=O)NCc4cc5cc[nH]c5cc4F)ccn3)cc2c1 [Example 83, 6-((4-(((6-fluoro-1H-indol-5-yl)methyl)carbamoyl)pyridin-2-yl)methyl)-3-methylquinoline-8-carboxamide]
Human Plasma Kallikrein
  IC50: < 100 nM
kallikrein
  EC50: 100 to 1000 nM

## Cc1cnc2c(C(=O)O)cc(Cc3cc(C(=O)NCc4c(C)cc(N)nc4C)ccn3)cc2c1 [Example 84, 6-((4-(((6-amino-2,4-dimethylpyridin-3-yl)methyl)carbamoyl)pyridin-2-yl)methyl)-3-methylquinoline-8-carboxylic acid]
Human Plasma Kallikrein
  IC50: < 100 nM
kallikrein
  EC50: < 100 nM

## Cc1cc(N)nc(C)c1CNC(=O)c1ccnc(Cc2cc(F)c3ncc(Cl)cc3c2)c1 [Example 89, N-(6-amino-2,4-dimethyl-pyridin-3-ylmethyl)-2-(3-chloro-8-fluoro-quinolin-6-ylmethyl)-isonicotinamide]
Human Plasma Kallikrein
  IC50: < 100 nM
kallikrein
  EC50: < 100 nM

## Cc1nc(N)ccc1CNC(=O)c1ccnc(Cc2cc(F)c3ncc(Cl)cc3c2)c1 [Example 91, N-(6-amino-2-methyl-pyridin-3-ylmethyl)-2-(3-chloro-8-fluoro-quinolin-6-ylmethyl)-isonicotinamide]
Human Plasma Kallikrein
  IC50: < 100 nM
kallikrein
  EC50: < 100 nM

## Cc1cc(N)nc(C)c1CNC(=O)c1ccnc(Cc2cc(Cl)c3ncc(Cl)cc3c2)c1 [Example 100, N-((6-amino-2,4-dimethylpyridin-3-yl)methyl)-2-((3,8-dichloroquinolin-6-yl)methyl)isonicotinamide]
Human Plasma Kallikrein
  IC50: < 100 nM
kallikrein
  EC50: < 100 nM

## Cc1ccc2cc(Cc3cc(C(=O)NCc4cc5c(Cl)c[nH]c5cc4F)ccn3)ccc2n1 [Example 110, N-((3-chloro-6-fluoro-1H-indol-5-yl)methyl)-2-((2-methylquinolin-6-yl)methyl)isonicotinamide]
Human Plasma Kallikrein
  IC50: < 100 nM
kallikrein
  EC50: 100 to 1000 nM

## Cc1ccc2cc(Cc3cc(C(=O)NCc4ccc5c(N)nccc5c4)ccn3)ccc2n1 [Example 111, N-((1-aminoisoquinolin-6-yl)methyl)-2-((2-methylquinolin-6-yl)methyl)isonicotinamide]
Human Plasma Kallikrein
  IC50: < 100 nM
kallikrein
  EC50: 100 to 1000 nM

## Cc1ccc2cc(Cc3cc(C(=O)NCc4c(C)cc(N)nc4C)ccn3)ccc2n1 [Example 113, N-((6-amino-2,4-dimethylpyridin-3-yl)methyl)-2-((2-methylquinolin-6-yl)methyl)isonicotinamide]
Human Plasma Kallikrein
  IC50: < 100 nM
kallikrein
  EC50: < 100 nM

## Cc1ccc2ncc(Cc3cc(C(=O)NCc4c(C)cc(N)nc4C)ccn3)cc2c1 [Example 114, N-((6-amino-2,4-dimethylpyridin-3-yl)methyl)-2-((6-methylquinolin-3-yl)methyl)isonicotinamide]
Human Plasma Kallikrein
  IC50: < 100 nM
kallikrein
  EC50: < 100 nM

## Cc1ccc2ncc(Cc3cc(C(=O)NCc4ccc5c(N)nccc5c4)ccn3)cc2c1 [Example 115, N-((1-aminoisoquinolin-6-yl)methyl)-2-((6-methylquinolin-3-yl)methyl)isonicotinamide]
Human Plasma Kallikrein
  IC50: < 100 nM
kallikrein
  EC50: < 100 nM

## Cc1ccc2ncc(Cc3cc(C(=O)NCc4cc5c(Cl)c[nH]c5cc4F)ccn3)cc2c1 [Example 116, N-((3-chloro-6-fluoro-1H-indol-5-yl)methyl)-2-((6-methylquinolin-3-yl)methyl) isonicotinamide]
Human Plasma Kallikrein
  IC50: < 100 nM
kallikrein
  EC50: 100 to 1000 nM

## Cc1ccc2ncc(Cc3cc(C(=O)NCc4ccc(N)nc4C)ccn3)cc2c1 [Example 117, N-((6-amino-2-methylpyridin-3-yl)methyl)-2-((6-methylquinolin-3-yl)methyl)isonicotinamide]
Human Plasma Kallikrein
  IC50: < 100 nM
kallikrein
  EC50: 100 to 1000 nM

## Nc1nccc2cc(CNC(=O)c3ccnc(Cc4cnc5ccc(F)cc5c4)c3)ccc12 [Example 118, N-((1-aminoisoquinolin-6-yl)methyl)-2-((6-fluoroquinolin-3-yl)methyl)isonicotinamide]
Human Plasma Kallikrein
  IC50: < 100 nM
kallikrein
  EC50: < 100 nM

## Cc1cc2cc(Cc3cc(C(=O)NCc4ccc5c(N)nccc5c4)ccn3)ccc2cn1 [Example 132, N-((1-aminoisoquinolin-6-yl)methyl)-2-((3-methylisoquinolin-6-yl)methyl)isonicotinamide]
Human Plasma Kallikrein
  IC50: < 100 nM
kallikrein
  EC50: 100 to 1000 nM

## Cc1cnc2ccc(Cc3cc(C(=O)NCc4ccc5c(N)nccc5c4)ccn3)cc2c1 [Example 142, N-((1-aminoisoquinolin-6-yl)methyl)-2-((3-methylquinolin-6-yl)methyl)isonicotinamide]
Human Plasma Kallikrein
  IC50: < 100 nM
kallikrein
  EC50: < 100 nM

## Cc1cnc2ccc(Cc3cc(C(=O)NCc4cc5c(Cl)c[nH]c5cc4F)ccn3)cc2c1 [Example 143, N-((3-chloro-6-fluoro-1H-indol-5-yl)methyl)-2-((3-methylquinolin-6-yl)methyl)isonicotinamide]
Human Plasma Kallikrein
  IC50: < 100 nM
kallikrein
  EC50: 100 to 1000 nM

## Cc1cnc2ccc(Cc3cc(C(=O)NCc4c(C)cc(N)nc4C)ccn3)cc2c1 [Example 144, N-((6-amino-2,4-dimethylpyridin-3-yl)methyl)-2-((3-methylquinolin-6-yl)methyl)isonicotinamide]
Human Plasma Kallikrein
  IC50: < 100 nM
kallikrein
  EC50: < 100 nM

## Cc1cc2cc(Cc3cc(C(=O)NCc4c(C)cc(N)nc4C)ccn3)ccc2cn1 [Example 145, N-((6-amino-2,4-dimethylpyridin-3-yl)methyl)-2-((3-methylisoquinolin-6-yl)methyl)isonicotinamide]
Human Plasma Kallikrein
  IC50: < 100 nM
kallikrein
  EC50: < 100 nM
